# Test results taken from patent US12486237B2, “Polymorphic form of (-)-cibenzoline succinate” (CELLTRION INC., priority 2020, dated 2025).
# Entries after “also recorded” stand apart in the source; their conditions may differ.
# Columns and labels:
# Type in all cases: physicochemical
# [1] = Accelerated storage stability test (48-hour, accelerated aging conditions); conditions: 48-hour storage, AAC 40° C./75% RH
# Description: For the crystalline and amorphous forms of (−)-cibenzoline succinate prepared according to Examples 1 to 4 above, a 48-hour storage stability test was performed under accelerated aging conditions (AAC; 40° C./75% RH).
# [2] = Long-term storage stability at 60° C. evaluated by HT-XRPD, DSC, TGMS and UPLC
# Description: The high-throughput XRD of the crystalline form was analyzed under the following conditions. • Manufacturer: Bruker, USA • Model: General Area Detector Diffraction System (GADDS) • Measurement temperature: 25° C. (RT) • 2θ measurement range: 1.5 to 41.5° • Exposure time: 90 seconds • Others: Measurement of intensity and geometric parameters with a V A NTEC-500 gas area detector (Bruker, USA) 9. High-Resolution X-Ray Diffraction (XRD) Analysis
# Thermogravimetric analysis coupled with mass spectroscopy for the crystalline form was performed under the following conditions. • Manufacturer: Mettler-Toledo GmbH, Switzerland • Model: TGA/DSC 3+ STARe system • Temperature range: 25 to 300° C. • Temperature rise rate: 10° C./min • Mass spectrometer: mass spectrometer Omnistar GSD 301 T2 (Pfeiffer Vacuum GmbH, Germany) 11. Differential Scanning Calorimetry (DSC) Analysis
# The calorimetric analysis of the crystalline form was performed by differential scanning calorimetry (DSC) under the following conditions. • Manufacturer: Metter Toredo GmbH, Switzerland • Model: heat flux DSC3+ STARe system • Temperature rise rate: 10° C./min • Temperature range: 25 to 300° C. • N2 flow rate: 50 ml/min. 12. Karl Fischer Titration Analysis
# The mass of the crystalline form was measured by ultra-performance liquid chromatography-mass spectrometer (UPLC-MS) under the following conditions. • Manufacturer: Agilent, USA • Model: Agilent 1290 • Detector 1: UV detector set at 224 nm • Detector 2: MSD XT in Positive Scan Mode • Measurement temperature: 25° C. (RT) • Column: Agilent Eclipse Plus C18 HD (50×2.1 mm; 1.8 μm) • Column temperature: 35° C. • Flow cell: 10 mm path • Gradient: Mobile phase A: 10 mM Ammonium acetate/Mobile phase B: Acetonitrile • Flow: 0.8 ml/min • Sample concentration: 0.8 mg/ml • Solvent: Water: Acetonitrile (50:50 v/v) • Injection: 1 μl • Retention time: 1.54 min 15. Analysis of Particle Size Distribution (PSD)
# Crystalline form 3 of (−)-cibenzoline succinate prepared according to Example 4 was stored at 60° C. for 4 weeks, and then the long-term storage stability thereof was evaluated by HT-XRPD, DSC, TGMS and UPLC analysis.
# [3] = Particle size analysis by laser diffraction particle analyzer; conditions: dispersant heptane
# Description: The particle size of the crystalline form was measured with a laser diffraction particle size analyzer under the following conditions. • Manufacturer: Malvern Instruments Limited, UK • Model: Mastersizer 2000 • Sampler: Hydro 2000 G/S Instrumental Conditions: • Particle reflection index (RI)): 1.52 • Dispersant: heptane • Absorbance: 0.1 • Refractive index of dispersant: 1.39 • Analysis model: general purpose • Sensitivity: enhanced • Absorption limit: 10-15% • Measurement time: 30 seconds (repeated three times per sample) • Agitation speed: 3500 RPM Sample Preparation:
# About 150 mg of the sample was dissolved in 20 ml of 0.2% Span 85-containing heptane in a 50 ml beaker. The solution was sonicated for about 10 seconds and placed in a sampler, and when the absorption limit reached 10 to 15%, measurement was performed.
# The particle size of crystalline form 3 of (−)-cibenzoline succinate prepared according to Example 4 was measured by a laser diffraction particle analyzer.
# [4] = Dynamic vapor sorption (DVS) analysis
# Description: Dynamic vapor sorption was measured using a vapor sorption analyzer under the following conditions. • Manufacturer: Surface Measurement Systems Ltd, UK • Model: DVS Adventure-I system • Analysis of crystalline form of obtained solid: HT-XRPD Relative Humidity Cycle:
# Relative humidity was cycled from 40% to 95% (sorption), from 95% to 0% (desorption) and back to 40% (sorption 2). In each step, the relative humidity was changed to 10% at a constant temperature of 25° C. The weight equilibrium was set to a dm/dt of 0.002%/min.
# Dynamic vapor sorption data (water sorption isotherms) were measured by a vapor sorption analyzer.
# [5] = default reference value (before storage)
compound,measurement,setting,value
"O=C(O)CCC(=O)O.c1ccc(C2(c3ccccc3)C[C@@H]2C2=NCCN2)cc1 [Crystalline form 1, (−)-cibenzoline succinate]",Accelerated storage stability,[1],Unstable - presence of different
"O=C(O)CCC(=O)O.c1ccc(C2(c3ccccc3)C[C@@H]2C2=NCCN2)cc1 [Crystalline form 2, (−)-cibenzoline succinate]",Accelerated storage stability,[1],Unstable - presence of different
"O=C(O)CCC(=O)O.c1ccc(C2(c3ccccc3)C[C@@H]2C2=NCCN2)cc1 [Amorphous, (−)-cibenzoline succinate]",Accelerated storage stability,[1],Unstable - presence of different
"O=C(O)CCC(=O)O.c1ccc(C2(c3ccccc3)C[C@@H]2C2=NCCN2)cc1 [Crystalline form 3, (−)-cibenzoline succinate]",Accelerated storage stability,[1],Stable - presence of only
same,Accelerated storage stability,[1]; listed as crystalline form 3,stable
same,Chemical purity,[2]; [5],100%
same,DSC,[2]; [5],193.2 °C
same,TGA mass loss rate,[2]; [5],0.6%
same,Long-term storage stability (crystalline form and chemical purity),[2]; stored at 60° C. for 4 weeks,stable without changes in the crystalline form and chemical purity
same,Chemical purity,"[2]; stored at 60° C., week 1",100%
same,DSC,"[2]; stored at 60° C., week 1",191.2 °C
same,TGA mass loss rate,"[2]; stored at 60° C., week 1",0.2%
same,Chemical purity,"[2]; stored at 60° C., week 4",100%
same,DSC,"[2]; stored at 60° C., week 4",191.1 °C
same,TGA mass loss rate,"[2]; stored at 60° C., week 4",0.6%
same,D10,[3],8.80 μm
same,D50,[3],30.44 μm
same,D90,[3],60.72 μm
same,D50,[3]; listed as crystalline form 3,30.44 μm
same,water absorption rate at 80% relative humidity,"[4]; 25° C., 80% relative humidity",0.2%
same,water absorbed in sorption 2,"[4]; 25° C., relative humidity 0% back to 40%",absorbed almost no water
same,water absorption rate in the sorption cycle,"[4]; 25° C., relative humidity 40% to 95%",up to 0.3%
same,release of absorbed water in the desorption cycle,"[4]; 25° C., relative humidity 95% to 0%",completely released
same,crystalline form of sample obtained after DVS (HT-XRPD),[4]; after DVS cycle,maintained in Form D
same,"Hygroscopicity classification (European Pharmacopeia 5.0, 5.11)",[4]; based on water absorption at 80% relative humidity,non-hygroscopic; also recorded: non-hydroscopic
"O=C(O)CCC(=O)O.c1ccc(C2(c3ccccc3)C[C@@H]2C2=NCCN2)cc1 [Reference Example, (−)-cibenzoline succinate]",D10,[3],17.10 μm
same,D50,[3],127.82 μm
same,D90,[3],307.56 μm
